This experiment concerns B6C3F1 mice, ip Sarcoma M5076, median survival T/C. Briefly: NCI In Vivo Anticancer Drug Screen. Data for tumor model Sarcoma M5076 (intraperitoneal) in B6C3F1 mice. As to conditions: endpoint: median survival time, schedule: Q04DX004 (ip), higher = longer survival. In short, it runs like this:
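Antitumour effect is judged in tumour-bearing mice by comparing survival after compound dosing against vehicle-only animals, reported as T/C.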

The mark [1] stands for this setting: dose: 50.0 mg/kg/injection, vehicle: Klucel (hydroxypropylcellulose) (HPC).
[2] abbreviates: dose: 100.0 mg/kg/injection, vehicle: Klucel (hydroxypropylcellulose) (HPC).
Where [3] appears, read: dose: 200.0 mg/kg/injection, vehicle: Klucel (hydroxypropylcellulose) (HPC).
The mark [4] stands for this setting: dose: 25.0 mg/kg/injection, vehicle: saline with Tween-80.
Setting [5] is: dose: 50.0 mg/kg/injection, vehicle: saline with Tween-80.
The mark [6] stands for this setting: dose: 100.0 mg/kg/injection, vehicle: saline with Tween-80.
Setting [7] is: dose: 200.0 mg/kg/injection, vehicle: saline with Tween-80.
The mark [8] stands for this setting: dose: 400.0 mg/kg/injection, vehicle: Klucel (hydroxypropylcellulose) (HPC).
Where [9] appears, read: dose: 25.0 mg/kg/injection, vehicle: water.
[10] abbreviates: dose: 50.0 mg/kg/injection, vehicle: water.
Where [11] appears, read: dose: 100.0 mg/kg/injection, vehicle: water.

Several values for one entry are separate records, joined by “and”; a condition that tells them apart may be missing. Identical values can stand only once. Toxic doses and inconclusive results are not listed.

As for `Cc1ccc(C2C(C#N)C(=O)NC(=O)C2C#N)cc1` (centres undefined), the T/C runs as follows: under setting [1], 99 % of control; under setting [2], 99 % of control; under setting [3], 86 % of control.

With `COc1ccc(CCN2C(=O)C(=O)N(c3cccc(Cl)c3)C2=O)cc1OC`, the T/C is 88 % of control (dose: 43.75 mg/kg/injection, vehicle: Klucel (hydroxypropylcellulose) (HPC)); 91 % of control (dose: 87.5 mg/kg/injection, vehicle: Klucel (hydroxypropylcellulose) (HPC)); 88 % of control (dose: 175.0 mg/kg/injection, vehicle: Klucel (hydroxypropylcellulose) (HPC)); 98 % of control (dose: 350.0 mg/kg/injection, vehicle: Klucel (hydroxypropylcellulose) (HPC)); 92 % of control (dose: 700.0 mg/kg/injection, vehicle: Klucel (hydroxypropylcellulose) (HPC)).

In the case of `CC(=O)C(Cl)C(=O)c1c(C)[nH]n(-c2ccccc2)c1=O` (centres undefined), the T/C was 99 % of control under setting [1], 113 % of control under setting [2] and 92 % of control under setting [3].

`N=C(N)c1ccc(Nc2ccc(-c3cc4ccc(C(=N)N)cc4[nH]3)cc2)cc1`: the T/C (dose: 3.75 mg/kg/injection, vehicle: Klucel (hydroxypropylcellulose) (HPC)) is 115 % of control.

In the case of `COC(=O)c1ccc(OCc2nc3ccccc3[nH]2)cc1`, the T/C is 95 % of control under setting [4]; 100 % of control under setting [5]; 95 % of control under setting [6]; 89 % of control under setting [7]; 90 % of control (dose: 400.0 mg/kg/injection, vehicle: saline with Tween-80).

Take `CC1(C)C2CCC(C2)C1/C=C1/SC(=S)NC1=O` (centres undefined): the T/C was 95 % of control (dose: 25.0 mg/kg/injection, vehicle: Klucel (hydroxypropylcellulose) (HPC)); 98 % of control under setting [1]; 90 % of control under setting [2]; 91 % of control under setting [3]; 87 % of control under setting [8].

`COc1ccc(-n2[nH]c3c(cnc4ccccc43)c2=O)cc1`: the T/C was 93 % of control (dose: 2.25 mg/kg/injection, vehicle: saline with Tween-80); 95 % of control (dose: 4.5 mg/kg/injection, vehicle: saline with Tween-80); 94 % of control (dose: 9.0 mg/kg/injection, vehicle: saline with Tween-80); 89 % of control (dose: 18.0 mg/kg/injection, vehicle: saline with Tween-80); 92 % of control (dose: 36.0 mg/kg/injection, vehicle: saline with Tween-80).

On to `O=NNc1cccnc1`, for which the T/C runs as follows: (dose: 12.5 mg/kg/injection, vehicle: water) 99 % of control and 119 % of control; under setting [9], 110 % of control and 113 % of control; under setting [10], 97 % of control and 110 % of control; under setting [11], 124 % of control.

On to `CC1(C)N=C(N)N=C(N)N1c1ccc(CCCCc2ccc(S(=O)(=O)F)cc2Cl)c(Cl)c1`, for which the T/C reads like this: (dose: 15.0 mg/kg/injection, vehicle: Klucel (hydroxypropylcellulose) (HPC)) 204 % of control; (dose: 30.0 mg/kg/injection, vehicle: Klucel (hydroxypropylcellulose) (HPC)) 186 % of control; (dose: 60.0 mg/kg/injection, vehicle: Klucel (hydroxypropylcellulose) (HPC)) 270 % of control; (dose: 120.0 mg/kg/injection, vehicle: Klucel (hydroxypropylcellulose) (HPC)) 270 % of control; (dose: 240.0 mg/kg/injection, vehicle: Klucel (hydroxypropylcellulose) (HPC)) 270 % of control.

Turning to `Cc1cc(C)cc(N(C2=NCCS2)C2=NCCS2)c1`, the T/C is 100 % of control under setting [1], 96 % of control under setting [2], 92 % of control under setting [3] and 99 % of control under setting [8].

Consider `Cc1nc(N)nc(N)c1N1CCN(c2ccc(C(=O)NC(C(=O)O)C(=O)O)cc2)CC1`, for which the T/C is 104 % of control (dose: 3.75 mg/kg/injection, vehicle: Klucel + Tween-80); 106 % of control (dose: 7.5 mg/kg/injection, vehicle: Klucel + Tween-80); 103 % of control (dose: 15.0 mg/kg/injection, vehicle: Klucel + Tween-80); 113 % of control (dose: 30.0 mg/kg/injection, vehicle: Klucel + Tween-80); 121 % of control (dose: 60.0 mg/kg/injection, vehicle: Klucel + Tween-80).

Consider `O=[N+]([O-])c1ccc(C=C2C=CN(CCO)C=C2)cc1`, for which the T/C runs as follows: under setting [4], 115 % of control; under setting [5], 115 % of control; under setting [6], 106 % of control.

Turning to `CC[C@@]1(O)C(=O)OCc2c1cc1n(c2=O)Cc2cc3cc(O)ccc3nc2-1`, the T/C was 104 % of control (dose: 0.86 mg/kg/injection, vehicle: suspension in saline); 109 % of control (dose: 1.44 mg/kg/injection, vehicle: suspension in saline); 106 % of control (dose: 1.88 mg/kg/injection, vehicle: suspension in saline); 115 % of control (dose: 2.4 mg/kg/injection, vehicle: suspension in saline); 162 % of control (dose: 3.75 mg/kg/injection, vehicle: suspension in saline); 116 % of control (dose: 6.67 mg/kg/injection, vehicle: suspension in saline).

Turning to `CC(=O)Nc1ccc(Nc2ccc(C(=C3C=CC(=[N+](C)CCC#N)C=C3)c3ccc(N(C)CCC#N)cc3)cc2)cc1`, the T/C runs as follows: (dose: 12.5 mg/kg/injection, vehicle: saline with Tween-80) 101 % of control; under setting [4], 101 % of control; under setting [5], 99 % of control; under setting [6], 100 % of control; under setting [7], 92 % of control.

For `COc1ccc([C@@]23Oc4cc(OC)cc(OC)c4[C@]2(O)[C@H](O)[C@H](C(=O)N(C)C)[C@H]3c2ccccc2)cc1`, the T/C was 97 % of control (dose: 1.0 mg/kg/injection, vehicle: Klucel (hydroxypropylcellulose) (HPC)); 105 % of control (dose: 2.0 mg/kg/injection, vehicle: Klucel (hydroxypropylcellulose) (HPC)); 109 % of control (dose: 4.0 mg/kg/injection, vehicle: Klucel (hydroxypropylcellulose) (HPC)); 123 % of control (dose: 8.0 mg/kg/injection, vehicle: Klucel (hydroxypropylcellulose) (HPC)).

In the case of `CCOP1(OCC)(SSC)OC(=O)C(C)S1` (centres undefined), the T/C by setting is: (dose: 18.75 mg/kg/injection, vehicle: saline with Tween-80) 92 % of control; (dose: 37.5 mg/kg/injection, vehicle: saline with Tween-80) 88 % of control; (dose: 75.0 mg/kg/injection, vehicle: saline with Tween-80) 98 % of control.

For the molecule `Oc1cccc2ccccc12`, the T/C runs as follows: under setting [9], 100 % of control; under setting [10], 105 % of control; under setting [11], 98 % of control.

Source of the values: PubChem BioAssay AID292 (DTP/NCI, 2004).
